The target in experiment [1] is T1, Lanosterol 14-alpha demethylase (Candida albicans (strain SC5314 / ATCC MYA-2876) (Yeast), UniProt P10613). Briefly: Inhibition of Candida albicans lanosterol 14-alpha demethylase assessed as reduction of ergosterol biosynthesis at 50 ug/ml after 18 hrs by UV spectroscopy analysis.
Experiment [2] has as its target T1, Lanosterol 14-alpha demethylase. Briefly: Inhibition of Candida albicans lanosterol 14-alpha demethylase assessed as reduction of ergosterol biosynthesis at 100 ug/ml after 18 hrs by UV spectroscopy analysis.
Experiment [3] deals with Candida albicans. As to the kind of experiment: Antifungal activity against Candida albicans ATCC 10231 at 10 ug/ml after 48 hrs by cup plate method. In kind it is functional. The note with it: ATCC 10231, 48 h.
In experiment [4] the test system is Candida albicans. As to the kind of experiment: Antifungal activity against Candida albicans ATCC 10231 at 50 ug/ml after 48 hrs by cup plate method. It counts as functional. The conditions noted are these: ATCC 10231, 48 h.
For experiment [5], the target named is T1, Lanosterol 14-alpha demethylase. As to the kind of experiment: Inhibition of Candida albicans lanosterol 14-alpha demethylase assessed as reduction of ergosterol biosynthesis at 10 ug/ml after 18 hrs by UV spectroscopy analysis.
Experiment [6] has as its system Candida albicans. Briefly: Antifungal activity against Candida albicans ATCC 10231 at 100 ug/ml after 48 hrs by cup plate method. In kind it is functional. The note with it: ATCC 10231, 48 h.

T1 sequence (P10613 whole entry): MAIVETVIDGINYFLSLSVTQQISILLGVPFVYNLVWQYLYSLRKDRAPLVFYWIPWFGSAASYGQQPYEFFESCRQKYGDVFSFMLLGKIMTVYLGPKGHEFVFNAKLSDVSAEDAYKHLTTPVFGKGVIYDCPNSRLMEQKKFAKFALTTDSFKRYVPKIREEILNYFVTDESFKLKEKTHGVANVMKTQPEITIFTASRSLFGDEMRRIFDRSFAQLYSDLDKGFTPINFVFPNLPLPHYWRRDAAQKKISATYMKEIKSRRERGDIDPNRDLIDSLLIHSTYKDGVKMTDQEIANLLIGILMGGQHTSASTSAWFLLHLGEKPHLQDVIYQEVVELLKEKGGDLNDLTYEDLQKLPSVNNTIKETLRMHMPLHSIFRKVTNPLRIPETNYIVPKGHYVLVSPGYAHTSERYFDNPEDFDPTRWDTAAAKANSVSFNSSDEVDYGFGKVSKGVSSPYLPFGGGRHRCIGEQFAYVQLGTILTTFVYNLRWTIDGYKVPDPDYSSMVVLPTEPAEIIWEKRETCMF

In general, inhibition refers to the relative decrease from the control value, in per cent. `c1ccc(CNCc2ccc3[nH]nnc3c2)cc1`: the inhibition at 50 µg/mL in experiment [1] was found to be 48.5%; in experiment [4], 27.4%. Besides, the inhibition at 100 µg/mL is 66% in experiment [2] and 67.7% in experiment [6]. Besides, the inhibition at 10 µg/mL in experiment [3] came to 12.5%; in experiment [5] it was 46.5%.

Regarding `Cc1ccccc1NCc1ccc2[nH]nnc2c1`, the inhibition at 50 µg/mL in experiment [1] was determined as 65.8%; in experiment [4], 34.2%. For the same molecule, the figures for the inhibition at 100 µg/mL in experiment [2] and in experiment [6] were 65.8% and 67.7%, respectively. In addition, the inhibition at 10 µg/mL in experiment [3] worked out at 0%; in experiment [5], 49.9%.

Take `Cc1ccccc1OCc1ccc2[nH]nnc2c1`: the inhibition at 50 µg/mL in experiment [1] was 54%; in experiment [4], 36.4%. The inhibition at 100 µg/mL was 54.4% in experiment [2] and 66.1% in experiment [6]. Also, the results for the inhibition at 10 µg/mL in experiment [3] and in experiment [5] were 0% and 50.5%, respectively.

On to `CCCCNCc1ccc2[nH]nnc2c1`, for which the inhibition at 50 µg/mL was determined as 45.5% in experiment [1] and 30% in experiment [4]. In addition, the inhibition at 100 µg/mL in experiment [2] worked out at 47.8%; in experiment [6], 64.3%. Further, the inhibition at 10 µg/mL in experiment [3] is 12.5%; in experiment [5] it was 1.55%.

On to `Cc1ccccc1NC(=O)c1ccc2[nH]nnc2c1`, for which the inhibition at 50 µg/mL in experiment [1] turned out to be 35.7%; in experiment [4], 23.7%. The inhibition at 100 µg/mL is 42.5% in experiment [2] and 58.4% in experiment [6]. The values for the inhibition at 10 µg/mL in experiment [3] and in experiment [5] were 4.16% and 12.6%, respectively.

With `O=C(NCc1ccccc1)c1ccc2[nH]nnc2c1`, the values for the inhibition at 50 µg/mL in experiment [1] and in experiment [4] were 33.1% and 28.5%, respectively. In addition, the inhibition at 100 µg/mL worked out at 41.3% in experiment [2] and 54.1% in experiment [6]. Besides, the results for the inhibition at 10 µg/mL in experiment [3] and in experiment [5] were 4.16% and 15.9%, respectively.

Take `CCCCNC(=O)c1ccc2[nH]nnc2c1`: the results for the inhibition at 50 µg/mL in experiment [1] and in experiment [4] were 22.7% and 27.4%, respectively. For the same molecule, the figures for the inhibition at 100 µg/mL in experiment [2] and in experiment [6] were 38.1% and 54.3%, respectively. Further, the inhibition at 10 µg/mL in experiment [3] is 4.16%; in experiment [5] it was 7.91%.

In the case of `Cc1ccccc1NCn1nnc2ccccc21`, the inhibition at 50 µg/mL was 29.4% in experiment [1] and 4.16% in experiment [4]. The inhibition at 100 µg/mL was found to be 31.3% in experiment [2] and 50.2% in experiment [6]. In addition, the inhibition at 10 µg/mL in experiment [3] amounted to 0%; in experiment [5] it was 11.6%.

Take `OC(Cn1cncn1)(Cn1cncn1)c1ccc(F)cc1F` [FLUCONAZOLE]: the figures for the inhibition at 50 µg/mL in experiment [1] and in experiment [4] were 47.7% and 30%, respectively. Also, the inhibition at 100 µg/mL in experiment [2] was 51.2%; in experiment [6], 65.5%. The inhibition at 10 µg/mL in experiment [3] stood at 12.5%; in experiment [5], 45.5%.

The values above are taken from ChEMBL document CHEMBL3603775, “Design, synthesis and evaluation of benzotriazole derivatives as novel antifungal agents” (Bioorg Med Chem Lett, 2015).
